Patent US20240002474A1, “Systems and Methods for Diagnostic Assessment and Treatment of Insulin Resistance and Hyperglycemia” (The Board of Trustees of the Leland Stanford Junior …, priority 2020, published 2024)

Columns and labels:
FcRn = FcRn (Homo sapiens, UniProt P55899); details: previously published peptide; similar to IgG; cited from earlier work
HepaRG hepatocytes = assay: Mitochondrial insulin stimulation test (MIST), oxygen consumption rate in HepaRG hepatocytes; assay type: cell-based, human; details: for insulin-dependent mitochondrial respiration / maximal respiration (FCCP uncoupling): HepaRG, 10-minute pretreatment with peptide (10 μM) before exposure to IR or T2D patient serum, vs cells without peptide
Protocol: Mitochondrial Insulin Stimulation Test. HepaRG hepatocytes or skeletal muscle cells were plated at 40,000 cells/well in Seahorse XF96 plate (Agilent) the day before the assay. Cells were serum starved by culturing in respective media without serum or growth factor supplements. Individual serum was diluted 1:100 in supplement-free media and cells were incubated with media containing individual serum for 4 hours. Cells were washed three times with PBS and incubated with seahorse assay media (buffer free RPMI with mM glucose, mM sodium pyruvate and mM glutamine) for 1 hour in a CO2 free incubation at 37° C. Seahorse measurements were performed every 5 minutes with mixing. Mitochondrial function was perturbed by administration of insulin (100 nM), oligomycin (1 μM), FCCP (2 μM), and rotenone and antimycin A (1 μM). Data was processed by normalizing basal respiration to zero and the maximal respiration following FCCP administration of the positive control (no serum exposure with insulin stimulation) to 1.
IgG purification and fragmentation. IgG purified from serum was diluted (1:100) in Protein G binding buffer (Thermo) and incubated with Protein G Agarose Beads (Thermo) for 4 hours on an orbital shaker at 4° C. Beads were washed three times with Protein G binding buffer and IgG was eluted by incubated beads in Protein G elution buffer, pH 2.7 for 5 minutes, centrifuged and the supernatant was quenched with Tris-HCl buffer, pH 9.0. Purified IgG was buffer exchanged to using 15 kDa spin column to PBS. Purification was validated by immunoblotting. Fab fragments were generated by papain cleavage using Pierce […] (Thermo Scientific) according to manufacturer's protocol.
Peptide Synthesis. SYN746 (QRFCTGHFGGLYPCHGP; SEQ ID NO: 1) and HIV TAT conjugated FcRn C-terminal tail-dominant negative ([…]; SEQ ID Nos: 2 and 3) were synthesized using Fmoc solid phase peptide synthesis and purified using preparative HPLC using aC18 reverse-phase column and characterized by liquid-chromatography mass spectrometry by University of Minnesota Peptide Synthesis Core.

Chain of FcRn (P55899 24-297 limits assumed): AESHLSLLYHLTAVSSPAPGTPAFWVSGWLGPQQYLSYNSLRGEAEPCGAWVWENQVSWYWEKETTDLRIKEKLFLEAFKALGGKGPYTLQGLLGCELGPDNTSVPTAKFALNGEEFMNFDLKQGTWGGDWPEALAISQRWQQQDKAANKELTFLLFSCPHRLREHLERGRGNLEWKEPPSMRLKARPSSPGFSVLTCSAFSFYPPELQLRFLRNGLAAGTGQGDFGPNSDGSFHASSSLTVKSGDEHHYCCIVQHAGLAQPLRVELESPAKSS
Chain of FcRn (P61769 21-119 partner): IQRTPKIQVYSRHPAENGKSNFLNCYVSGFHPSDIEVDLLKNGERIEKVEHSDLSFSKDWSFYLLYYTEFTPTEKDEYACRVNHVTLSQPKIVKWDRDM

Row | Sequence | binding to FcRn (FcRn) | mitochondrial function or insulin stimulation in control cells (HepaRG hepatocytes; HepaRG control cells, 10-minute pretreatment) | insulin-dependent mitochondrial respiration (HepaRG hepatocytes) | maximal respiration (FCCP uncoupling) (HepaRG hepatocytes)
1 | QRFCTGHFGGLYPCHGP (listed as Homo sapiens) [SYN746] | pH-sensitive binding | did not affect | dramatic rescue | dramatic rescue
2 | YGRKKRRQRRRGAPWISLRGDDTGVLLPTP [dominant negative] | – | – | significant rescue | significant rescue
